Converted amounts (≈) assume the structure as drawn. Read-outs that look alike come from different tables or passages of the source. Each block holds one compound with its values, some of them ahead of it.
Columns and labels:
Cryptococcus neoformans [1] = test: agar dilution assay (MIC) against expanded panel of 84 Cryptococcus neoformans isolates; format: cell-based; conditions: for MIC50: read-out: MIC50 (concentration at which 50% of the strains were inhibited); for MIC90: read-out: MIC90 (concentration at which 90% of the strains were inhibited)
Protocol: (§1) Such activity may be illustrated with test results against Cryptococcus neoformans employing yeast nitrogen base dextrose agar medium. In carrying out the assay, Compound I was solubilized in 10 percent dimethyl sulfoxide (DMSO) supplemented with one drop of Tween 20. Twofold dilutions were made with sterile distilled water/10 percent DMSO to obtain final drug concentrations in the agar dilution assay plates ranging from 128 to 0.06 μg/ml against two strains of Cryptococcus neoformans and subsequently against an expanded panel of 84 Cryptococcus strains at concentrations ranging from 0.008 to 16.0 μg/ml.
(§2) Nystatin or amphotericin B was used as a positive control. For the assay, nystatin was solubilized in 10 percent dimethylformamide and diluted in sterile distilled water; amphotericin B was solubilized by expressing water directly into a lyophilized cake and shaking until the colloidal solution was clear and then diluted in sterile distilled water. The final drug concentrations ranged from 0.063 to 128 μg/ml.

Trichoderma lignorum = test: disk diffusion assay, Trichoderma lignorum; format: cell-based; design: key: fuzzy (F)--a zone that had a fuzzy edge and clear center surrounding the disc; hazy (H)--a zone that was hazy throughout; slightly hazy (S)--a zone in which low levels of growth were discernible throughout the inhibition zone; very hazy (V)--a zone in which the differences between the background lawn and inhibition zone were barely discernible; conditions: appearance of inhibition zone
Protocol: (§3) The broad antifungal activity of Compound I against fungi may be illustrated with representative assay results in a disk diffusion assay. Filamentous fungi used in the assays were prepared from stock cultures which had been maintained on potato dextrose agar (Difco) and transferred serially at two week intervals using standard microbiological techniques. Yeast used were prepared from stock cultures of strains of yeast which had been maintained frozen at -80° C. in 20 percent aqueous glycerol.
(§4) Seeded agar assay plates were prepared according to the type of assay strain. Inoculum for filamentous fungi was prepared by scraping the surface of stock plates with a moistened sterile dacron swab. The spores and mycelia were then suspended in 10 milliliters of sterile potato dextrose broth (PDB) and adjusted to 70% transmittance (T) at 660 nm. Inoculum for Cryptococcus was prepared from overnight broth cultures. Cultures were then diluted into PDB to a final concentration of either 40% or 70% T at 660 nm. Assay plates were prepared by diluting the inoculum into appropriate molten agar medium, and thereafter cooled to 45° C., to yield a final concentration of 4 percent.
(§5) Samples were applied to 6.2 mm filter paper disks (25 μl disk) and air dried at 24° C. […]
(§6) Following incubation, inhibition zones were measured and recorded. […]

Ustilago zea = test: disk diffusion assay, Ustilago zea; format: cell-based; design: key: fuzzy (F)--a zone that had a fuzzy edge and clear center surrounding the disc; hazy (H)--a zone that was hazy throughout; slightly hazy (S)--a zone in which low levels of growth were discernible throughout the inhibition zone; very hazy (V)--a zone in which the differences between the background lawn and inhibition zone were barely discernible; conditions: appearance of inhibition zone
Protocol: as §3, §4, §5, §6

Ceratocystis ulmi = test: disk diffusion assay, Ceratocystis ulmi; format: cell-based; design: key: fuzzy (F)--a zone that had a fuzzy edge and clear center surrounding the disc; hazy (H)--a zone that was hazy throughout; slightly hazy (S)--a zone in which low levels of growth were discernible throughout the inhibition zone; very hazy (V)--a zone in which the differences between the background lawn and inhibition zone were barely discernible; conditions: appearance of inhibition zone
Protocol: as §3, §4, §5, §6

Verticillium serrae = test: disk diffusion assay, Verticillium serrae; format: cell-based; design: key: fuzzy (F)--a zone that had a fuzzy edge and clear center surrounding the disc; hazy (H)--a zone that was hazy throughout; slightly hazy (S)--a zone in which low levels of growth were discernible throughout the inhibition zone; very hazy (V)--a zone in which the differences between the background lawn and inhibition zone were barely discernible; conditions: appearance of inhibition zone
Protocol: as §3, §4, §5, §6

Cochliobolus miyabeanus = test: disk diffusion assay, Cochliobolus miyabeanus; format: cell-based; design: key: fuzzy (F)--a zone that had a fuzzy edge and clear center surrounding the disc; hazy (H)--a zone that was hazy throughout; slightly hazy (S)--a zone in which low levels of growth were discernible throughout the inhibition zone; very hazy (V)--a zone in which the differences between the background lawn and inhibition zone were barely discernible; conditions: appearance of inhibition zone
Protocol: as §3, §4, §5, §6

Rhizomucor miehei = test: disk diffusion assay, Rhizomucor miehei; format: cell-based; design: key: fuzzy (F)--a zone that had a fuzzy edge and clear center surrounding the disc; hazy (H)--a zone that was hazy throughout; slightly hazy (S)--a zone in which low levels of growth were discernible throughout the inhibition zone; very hazy (V)--a zone in which the differences between the background lawn and inhibition zone were barely discernible; conditions: appearance of inhibition zone
Protocol: as §3, §4, §5, §6

Cryptococcus laurentii = test: disk diffusion assay, Cryptococcus laurentii; format: cell-based; design: key: fuzzy (F)--a zone that had a fuzzy edge and clear center surrounding the disc; hazy (H)--a zone that was hazy throughout; slightly hazy (S)--a zone in which low levels of growth were discernible throughout the inhibition zone; very hazy (V)--a zone in which the differences between the background lawn and inhibition zone were barely discernible; conditions: appearance of inhibition zone
Protocol: as §3, §4, §5, §6

Aspergillus niger = test: disk diffusion assay, Aspergillus niger; format: cell-based; design: key: fuzzy (F)--a zone that had a fuzzy edge and clear center surrounding the disc; hazy (H)--a zone that was hazy throughout; slightly hazy (S)--a zone in which low levels of growth were discernible throughout the inhibition zone; very hazy (V)--a zone in which the differences between the background lawn and inhibition zone were barely discernible; conditions: appearance of inhibition zone
Protocol: as §3, §4, §5, §6

Cryptococcus albidus = test: disk diffusion assay, Cryptococcus albidus; format: cell-based; design: key: fuzzy (F)--a zone that had a fuzzy edge and clear center surrounding the disc; hazy (H)--a zone that was hazy throughout; slightly hazy (S)--a zone in which low levels of growth were discernible throughout the inhibition zone; very hazy (V)--a zone in which the differences between the background lawn and inhibition zone were barely discernible; conditions: appearance of inhibition zone
Protocol: as §3, §4, §5, §6

Botrytis allii = test: disk diffusion assay, Botrytis allii; format: cell-based; design: key: fuzzy (F)--a zone that had a fuzzy edge and clear center surrounding the disc; hazy (H)--a zone that was hazy throughout; slightly hazy (S)--a zone in which low levels of growth were discernible throughout the inhibition zone; very hazy (V)--a zone in which the differences between the background lawn and inhibition zone were barely discernible; conditions: appearance of inhibition zone
Protocol: as §3, §4, §5, §6

Aspergillus flavus = test: disk diffusion assay, Aspergillus flavus; format: cell-based; design: key: fuzzy (F)--a zone that had a fuzzy edge and clear center surrounding the disc; hazy (H)--a zone that was hazy throughout; slightly hazy (S)--a zone in which low levels of growth were discernible throughout the inhibition zone; very hazy (V)--a zone in which the differences between the background lawn and inhibition zone were barely discernible; conditions: appearance of inhibition zone
Protocol: as §3, §4, §5, §6

Phoma sp. = test: disk diffusion assay, Phoma sp.; format: cell-based; design: key: fuzzy (F)--a zone that had a fuzzy edge and clear center surrounding the disc; hazy (H)--a zone that was hazy throughout; slightly hazy (S)--a zone in which low levels of growth were discernible throughout the inhibition zone; very hazy (V)--a zone in which the differences between the background lawn and inhibition zone were barely discernible; conditions: appearance of inhibition zone
Protocol: as §3, §4, §5, §6

Fusarium oxysporum = test: disk diffusion assay, Fusarium oxysporum; format: cell-based; design: key: fuzzy (F)--a zone that had a fuzzy edge and clear center surrounding the disc; hazy (H)--a zone that was hazy throughout; slightly hazy (S)--a zone in which low levels of growth were discernible throughout the inhibition zone; very hazy (V)--a zone in which the differences between the background lawn and inhibition zone were barely discernible; conditions: appearance of inhibition zone
Protocol: as §3, §4, §5, §6

[2] = system: certain yeasts, particularly the Cryptococcus species; test: activity against certain yeasts (statement); format: cell-based
Scopulariopsis communes = test: disk diffusion assay, Scopulariopsis communes; format: cell-based; design: key: fuzzy (F)--a zone that had a fuzzy edge and clear center surrounding the disc; hazy (H)--a zone that was hazy throughout; slightly hazy (S)--a zone in which low levels of growth were discernible throughout the inhibition zone; very hazy (V)--a zone in which the differences between the background lawn and inhibition zone were barely discernible; conditions: appearance of inhibition zone
Protocol: as §3, §4, §5, §6

Alternaria solani = test: disk diffusion assay, Alternaria solani; format: cell-based; design: key: fuzzy (F)--a zone that had a fuzzy edge and clear center surrounding the disc; hazy (H)--a zone that was hazy throughout; slightly hazy (S)--a zone in which low levels of growth were discernible throughout the inhibition zone; very hazy (V)--a zone in which the differences between the background lawn and inhibition zone were barely discernible; conditions: appearance of inhibition zone
Protocol: as §3, §4, §5, §6

Staphylococcus species = test: activity against bacteria (statement), Staphylococcus; format: cell-based
Penicillium sp. = test: disk diffusion assay, Penicillium sp.; format: cell-based; design: key: fuzzy (F)--a zone that had a fuzzy edge and clear center surrounding the disc; hazy (H)--a zone that was hazy throughout; slightly hazy (S)--a zone in which low levels of growth were discernible throughout the inhibition zone; very hazy (V)--a zone in which the differences between the background lawn and inhibition zone were barely discernible; conditions: appearance of inhibition zone
Protocol: as §3, §4, §5, §6

Erwinia species = test: activity against bacteria (statement), Erwinia; format: cell-based
Serratia species = test: activity against bacteria (statement), Serratia; format: cell-based
Trichoderma sp. = test: disk diffusion assay, Trichoderma sp.; format: cell-based; design: key: fuzzy (F)--a zone that had a fuzzy edge and clear center surrounding the disc; hazy (H)--a zone that was hazy throughout; slightly hazy (S)--a zone in which low levels of growth were discernible throughout the inhibition zone; very hazy (V)--a zone in which the differences between the background lawn and inhibition zone were barely discernible; conditions: appearance of inhibition zone
Protocol: as §3, §4, §5, §6

solubility = conditions: organic solvents
Cephalosporium sp. = test: disk diffusion assay, Cephalosporium sp.; format: cell-based; design: key: fuzzy (F)--a zone that had a fuzzy edge and clear center surrounding the disc; hazy (H)--a zone that was hazy throughout; slightly hazy (S)--a zone in which low levels of growth were discernible throughout the inhibition zone; very hazy (V)--a zone in which the differences between the background lawn and inhibition zone were barely discernible; conditions: appearance of inhibition zone
Protocol: as §3, §4, §5, §6

Aspergillus fumigatus = test: disk diffusion assay, Aspergillus fumigatus; format: cell-based; design: key: fuzzy (F)--a zone that had a fuzzy edge and clear center surrounding the disc; hazy (H)--a zone that was hazy throughout; slightly hazy (S)--a zone in which low levels of growth were discernible throughout the inhibition zone; very hazy (V)--a zone in which the differences between the background lawn and inhibition zone were barely discernible; conditions: appearance of inhibition zone
Protocol: as §3, §4, §5, §6

Cryptococcus neoformans [3] = test: agar dilution assay (MIC) against two strains of Cryptococcus neoformans; format: cell-based; conditions: yeast nitrogen base dextrose agar
Protocol: as §1, §2
The minimum inhibitory concentration (MIC) against the organisms employed on the standard assay were as follows: […]

Cercospora beticola = test: disk diffusion assay, Cercospora beticola; format: cell-based; design: key: fuzzy (F)--a zone that had a fuzzy edge and clear center surrounding the disc; hazy (H)--a zone that was hazy throughout; slightly hazy (S)--a zone in which low levels of growth were discernible throughout the inhibition zone; very hazy (V)--a zone in which the differences between the background lawn and inhibition zone were barely discernible; conditions: appearance of inhibition zone
Protocol: as §3, §4, §5, §6

- MIC50 (Cryptococcus neoformans [1]; 84 isolates): 0.125 µg/mL (≈ 0.135 µM)
- MIC90 (Cryptococcus neoformans [1]; 84 isolates): 0.25 µg/mL (≈ 0.271 µM)
SMILES: C[C@@H]1[C@H](O)[C@@H](C)/C=C/C=C/C=C/C=C/C=C/C=C/C=C/[C@H](O[C@@H]2O[C@H](C)[C@@H](O)[C@H](N)[C@@H]2O)C[C@@H]2O[C@](O)(C[C@@H](O)C[C@@H](O)[C@H](O)CC[C@@H](O)C[C@@H](O)CC(=O)O[C@H]1C)C[C@H](O)[C@H]2C(=O)O [Amphotericin B, amphotericin B, reference compound]

SMILES: COc1ccc(CC2NC(=O)C=CCC(C(C)C3OC3c3ccccc3)OC(=O)C(CC(C)C)OC(=O)C(C)CNC2=O)cc1Cl (stereo not shown) [Compound I, 10-[(3-chloro 4methoxyphenyl)methyl]-6-methyl-3-(2-methylpropyl)-16-[1-(3-phenyloxiranyl)ethyl]-1,4-dioxa-8,11-diazacyclohexadec-13-ene-2,5,9,12-tetrone]
- Zone qualifier (Trichoderma lignorum): S
- Zone qualifier (Ustilago zea): S
- Zone qualifier (Ceratocystis ulmi): S
- Zone qualifier (Verticillium serrae): V
- Zone qualifier (Cochliobolus miyabeanus): F
- Zone qualifier (Rhizomucor miehei): V
- Zone qualifier (Cryptococcus laurentii): H and S
- Zone qualifier (Aspergillus niger): S
- Zone qualifier (Cryptococcus albidus): S
- Zone qualifier (Botrytis allii): S
- Zone qualifier (Aspergillus flavus): S
- Zone qualifier (Phoma sp.): S
- Zone qualifier (Fusarium oxysporum): F
- activity against certain yeasts [2]: active
- Zone qualifier (Scopulariopsis communes): H
- Zone qualifier (Alternaria solani): S
- activity against bacteria (Staphylococcus species): active
- Zone qualifier (Penicillium sp.): S and F
- activity against bacteria (Erwinia species): active
- activity against bacteria (Serratia species): active
- Zone qualifier (Trichoderma sp.): S
- MIC (Cryptococcus neoformans [1]; read-out: G-MIC (geometric means of MIC)): 0.03 µg/mL (≈ 0.0458 µM)
- MIC50 (Cryptococcus neoformans [1]): 0.031 µg/mL (≈ 0.0473 µM)
- MIC90 (Cryptococcus neoformans [1]): 0.031 µg/mL (≈ 0.0473 µM)
- solubility (solubility): soluble in organic solvents
- Zone qualifier (Cephalosporium sp.): V
- Zone qualifier (Aspergillus fumigatus): S
- MIC (Cryptococcus neoformans [3]; strain MY1051, read-out: Minimum Inhibitory Concentration): ≤ 0.063 µg/mL
- Minimum Inhibitory Concentration (Cryptococcus neoformans [3]; strain MY1146): ≤ 0.063 µg/mL
- Zone qualifier (Cercospora beticola): S

SMILES: C[C@@H]1[C@H](O)[C@@H](C)/C=C/C=C/CC/C=C/C=C/C=C/C=C/C(O[C@H]2O[C@H](C)[C@@H](O)[C@H](N)[C@@H]2O)CC2O[C@](O)(CC(O)C(O)CCC(O)CC(O)CC(O)CC(=O)O[C@H]1C)CC(O)C2C(=O)O (stereo partly shown) [Nystatin, nystatin, reference compound]
- Minimum Inhibitory Concentration (Cryptococcus neoformans [3]; strain MY1051): 1.0 µg/mL
- Minimum Inhibitory Concentration (Cryptococcus neoformans [3]; strain MY1146): 1.0 µg/mL
